The target in one experiment is T1, AChE (Electrophorus electricus, UniProt O42275).
T1 construct: AChE (from electric eels); from tissue
The experiment can be described thus: biochemical. Particulars: for Ki: Lineweaver–Burk plots; for AChE/BChE SI (selectivity index): SI = KI (AChE)/KI (BChE); for IC50: substrate ATChI, 37 °C.

The next experiment deals with T2, BChE (Equus caballus, UniProt P81908).
T2 construct: BChE (from horse serum); from tissue; host or cells: horse serum
The experiment can be described thus: biochemical. Particulars: for Ki: Lineweaver–Burk plots; for IC50: substrate BChI, 37 °C.

A short description of experiment [1]: DPPH radical scavenging assay. The conditions noted are these: 2 µg mL^−1. On the procedure:
(§1) The methods outlined by Blois and Re were used to assess the DPPH^ · and ABTS^+· free radical scavenging activities, respectively.^[ [58], [59] ^– [60] ^] A series of stock concentrations of synthesized thiazole‐based furan derivatives (2a‐2m) was prepared. For DPPH assay, a radical solution of 1 mM DPPH solution was prepared. Final concentrations were adjusted by diluting the sample stock solutions with ethanol to a total volume of 2 mL and then adding 0.5 mL of DPPH solution to each tube. The mixtures were incubated at room temperature and protected from light for 30 min. Absorbance was measured at 517 nm. In the ABTS test, 7 mM ABTS solution was prepared, and radical cations were formed by adding 2.45 mM persulfate. The absorbance of the control solution was adjusted to 0.700 ± 0.025 at 734 nm. For analysis, 0.5 mL of ABTS^+· radical solution was added to each sample. The absorbance at 734 nm was then measured against the blank solution following a 30 min incubation period.
For orientation: Loss of DPPH colour is used to gauge radical scavenging.

Experiment [2] in a line: ABTS radical scavenging assay. The conditions noted are these: 2 µg mL^−1. On the procedure:
as §1

Where “and” joins values, the source holds several entries; their conditions need not be identical. Equal entries are not always repeated.

T1 sequence (O42275 24-633): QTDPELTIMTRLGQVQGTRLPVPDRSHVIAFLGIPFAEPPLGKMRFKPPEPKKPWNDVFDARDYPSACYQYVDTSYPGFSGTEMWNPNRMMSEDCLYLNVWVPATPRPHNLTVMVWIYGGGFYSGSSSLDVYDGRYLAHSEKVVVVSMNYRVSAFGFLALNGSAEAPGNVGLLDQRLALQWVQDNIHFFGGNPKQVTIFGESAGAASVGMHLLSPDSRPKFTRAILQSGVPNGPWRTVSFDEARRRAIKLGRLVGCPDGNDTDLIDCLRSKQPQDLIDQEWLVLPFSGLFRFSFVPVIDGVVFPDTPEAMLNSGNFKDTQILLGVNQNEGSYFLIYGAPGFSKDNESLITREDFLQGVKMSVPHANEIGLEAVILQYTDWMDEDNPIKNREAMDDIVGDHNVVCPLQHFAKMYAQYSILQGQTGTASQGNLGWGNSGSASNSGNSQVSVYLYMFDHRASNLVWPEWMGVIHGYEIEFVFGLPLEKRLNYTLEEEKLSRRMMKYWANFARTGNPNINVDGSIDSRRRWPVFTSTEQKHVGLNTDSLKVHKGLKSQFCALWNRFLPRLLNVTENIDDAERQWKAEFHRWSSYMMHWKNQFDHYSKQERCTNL
T2 sequence (P81908 whole entry): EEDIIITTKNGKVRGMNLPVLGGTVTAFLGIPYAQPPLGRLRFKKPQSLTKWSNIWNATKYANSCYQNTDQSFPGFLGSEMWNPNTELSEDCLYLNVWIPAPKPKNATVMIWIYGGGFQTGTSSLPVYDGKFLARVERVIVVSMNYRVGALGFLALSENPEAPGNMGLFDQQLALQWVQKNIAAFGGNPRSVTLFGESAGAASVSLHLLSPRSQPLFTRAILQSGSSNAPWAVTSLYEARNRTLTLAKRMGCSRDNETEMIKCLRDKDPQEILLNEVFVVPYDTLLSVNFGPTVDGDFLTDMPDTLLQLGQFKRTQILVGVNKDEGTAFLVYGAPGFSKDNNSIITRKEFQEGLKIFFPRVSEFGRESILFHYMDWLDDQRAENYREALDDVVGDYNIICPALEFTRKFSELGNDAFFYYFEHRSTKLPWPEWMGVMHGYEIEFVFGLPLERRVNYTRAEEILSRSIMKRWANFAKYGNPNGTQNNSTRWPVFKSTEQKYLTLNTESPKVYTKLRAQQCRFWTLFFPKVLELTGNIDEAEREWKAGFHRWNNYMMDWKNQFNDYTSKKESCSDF
Experimental for AChE: Activity variations were tracked at 37 °C using acetylthiocholine iodide (ATChI) as a substrate for AChE (from electric eels) and butyrylcholine iodide (BChI) as a substrate for BChE (from horse serum).
Using at least five different inhibitor concentrations against the AChE and BChE enzymes, the inhibitory effects of thiazole‐based furan derivatives were assessed across a range of inhibitor doses. […] Furthermore, Lineweaver–Burk plots were used to assess inhibition types and inhibition constants (K I), providing thorough information on the kinetic behavior of these inhibitors.^[ [64] ^, [65] ^]

The Ki is a measure of affinity in units of concentration, obtained from inhibition or displacement. High values mean weaker binding, low ones tighter binding. The IC50 is the point on the concentration scale where inhibition reaches its midpoint. Low readings indicate greater potency, high ones weaker potency. With `OCc1ccc(C=NNc2nc(-c3ccc(-c4ccccc4)cc3)cs2)o1` [2e, 4‐([1,1^′‐Biphenyl]‐4‐Yl)‐2‐(2‐((5‐Hydroxymethylfuran‐2‐Yl)methylene)hydrazineyl) Thiazole], on AChE, the Ki stood at 34 ± 2.1 µM, the “AChE/BChE SI (selectivity index)” value was found to be 5.287 and the half-maximal inhibitory concentration (IC50) worked out at 49.5 µM. Further, on BChE, the Ki was found to be 6.44 ± 0.452 µM and the IC50 turned out to be 9.36 µM. Moreover, in experiment [1], the “DPPH percent radical scavenging” value is reported as 4.621 ± 0.372%. Further, the “ABTS percent radical scavenging” value in experiment [2] amounted to 17.105 ± 1.248%.
Take `OCc1ccc(C=NNc2nc(-c3ccc(Cl)cc3Cl)cs2)o1` [2l, 4‐(2,4‐Dichlorophenyl)‐2‐(2‐((5‐Hydroxymethylfuran‐2‐Yl)methylene)hydrazineyl) Thiazole]: on AChE, the Ki turned out to be 42.1 ± 3.79 µM, the “AChE/BChE SI (selectivity index)” value was found to be 7.345 and the IC50 was found to be 61.3 µM. Further, on BChE, the Ki came to 5.74 ± 0.384 µM and the IC50 amounted to 8.35 µM. In addition, in experiment [1], the “DPPH percent radical scavenging” value is recorded as 4.436 ± 0.386%. Moreover, the “ABTS percent radical scavenging” value in experiment [2] was 21.053 ± 1.793%.
Consider `OCc1ccc(C=NNc2nc(-c3ccc(Cl)cc3)cs2)o1` [2k, 4‐(4‐Chlorophenyl)‐2‐(2‐((5‐hydroxymethylfuran‐2‐yl)methylene)hydrazineyl)thiazole], for which, on AChE, the Ki was 39.4 ± 3.25 µM, the “AChE/BChE SI (selectivity index)” value is reported as 4.629 and the IC50 was determined as 57.3 µM. Besides, at BChE, the Ki is 8.51 ± 0.684 µM and the IC50 was 12.4 µM. Also, the “DPPH percent radical scavenging” value in experiment [1] was found to be 6.470 ± 0.574%. In addition, in experiment [2], the “ABTS percent radical scavenging” value is 11.842 ± 0.982%.
As to `OCc1ccc(C=NNc2nc(-c3ccc(Cl)c(Cl)c3)cs2)o1` [2h, 4‐(3,4‐Dichlorophenyl)‐2‐(2‐((5‐Hydroxymethylfuran‐2‐Yl)methylene)hydrazineyl) Thiazole], on AChE, the Ki worked out at 26.7 ± 2.04 µM, the “AChE/BChE SI (selectivity index)” value is reported as 3.257 and it took 38.9 µM to reach half-maximal inhibition (IC50). On BChE, this molecule had a Ki of 8.21 ± 0.722 µM and an IC50 of 11.9 µM. The “DPPH percent radical scavenging” value in experiment [1] is on record as 5.361 ± 0.486%. The “ABTS percent radical scavenging” value in experiment [2] turned out to be 12.106 ± 1.036%.
For the molecule `OCc1ccc(C=NNc2nc(-c3ccc(Br)cc3)cs2)o1` [2f, 4‐(4‐Bromophenyl)‐2‐(2‐((5‐Hydroxymethylfuran‐2‐Yl)methylene)hydrazineyl)thiazole], at AChE, the affinity, expressed as Ki, was 26.5 ± 1.81 µM; the “AChE/BChE SI (selectivity index)” value came out at 5.557; the IC50 amounted to 38.5 µM. For the same molecule, at BChE, the affinity, expressed as Ki, was 4.76 ± 0.321 µM and half-maximal inhibition (IC50) was put at 6.93 µM. The “DPPH percent radical scavenging” value in experiment [1] is given as 7.579 ± 0.648%. The “ABTS percent radical scavenging” value in experiment [2] is 22.107 ± 1.728%.
As for `OCc1ccc(C=NNc2nc(-c3ccccc3)cs2)o1` [2j, 4‐Phenyl‐2‐(2‐((5‐hydroxymethylfuran‐2‐yl)methylene)hydrazineyl)thiazole], at AChE, affinity was put at a Ki of 42.5 ± 3.49 µM, the “AChE/BChE SI (selectivity index)” value is recorded as 3.134 and the IC50 is 61.9 µM. Moreover, at BChE, the Ki worked out at 13.6 ± 1.05 µM and the IC50 was 19.7 µM. Moreover, the “DPPH percent radical scavenging” value in experiment [1] is recorded as 9.057 ± 0.834%. Also, the “ABTS percent radical scavenging” value in experiment [2] is recorded as 28.158 ± 2.075%.
Regarding `O=[N+]([O-])c1cccc(-c2csc(NN=Cc3ccc(CO)o3)n2)c1` [2m, 4‐(3‐Nitrophenyl)‐2‐(2‐((5‐Hydroxymethylfuran‐2‐Yl)methylene)hydrazineyl)thiazole], at AChE, the Ki is 59.6 ± 4.82 µM, the “AChE/BChE SI (selectivity index)” value is listed as 4.001 and the IC50 was found to be 86.6 µM. Moreover, on BChE, the Ki came to 14.9 ± 1.35 µM and the IC50 is 21.7 µM. Further, the “DPPH percent radical scavenging” value in experiment [1] turned out to be 11.275 ± 1.021%. The “ABTS percent radical scavenging” value in experiment [2] is reported as 30.789 ± 2.489%.
`Cc1ccc(-c2csc(NN=Cc3ccc(CO)o3)n2)cc1` [2g, 4‐(4‐Methylphenyl)‐2‐(2‐((5‐Hydroxymethylfuran‐2‐Yl)methylene)hydrazineyl)thiazole]: on AChE, the Ki worked out at 36.7 ± 2.56 µM, the “AChE/BChE SI (selectivity index)” value turned out to be 2.847 and half-maximal inhibition (IC50) was put at 53.3 µM. At BChE, this molecule gave a Ki of 12.9 ± 1.21 µM and an IC50 of 18.7 µM. The “DPPH percent radical scavenging” value in experiment [1] was found to be 4.067 ± 0.289%. The “ABTS percent radical scavenging” value in experiment [2] stood at 11.053 ± 1.012%.
Regarding `O=[N+]([O-])c1ccc(-c2csc(NN=Cc3ccc(CO)o3)n2)cc1` [2a, 4‐(4‐Nitrophenyl)‐2‐(2‐((5‐hydroxymethylfuran‐2‐yl)methylene)hydrazineyl)thiazole], on AChE, the Ki was found to be 14.9 ± 1.05 µM, the “AChE/BChE SI (selectivity index)” value was found to be 2.469 and the IC50 came out at 21.7 µM. Further, at BChE, the Ki came to 6.03 ± 0.523 µM and the concentration for half-maximal inhibition (IC50) was 8.77 µM. Besides, the “DPPH percent radical scavenging” value in experiment [1] was 12.202% and 12.202 ± 0.965%. Also, the “ABTS percent radical scavenging” value in experiment [2] was 56.842% and 56.842 ± 4.346%.
Consider `OCc1ccc(C=NNc2nc(-c3ccc(F)cc3)cs2)o1` [2d, 4‐(4‐Fluorophenyl)‐2‐(2‐((5‐Hydroxymethylfuran‐2‐Yl)methylene)hydrazineyl)thiazole], for which, on AChE, the Ki was found to be 36.7 ± 3.22 µM, the “AChE/BChE SI (selectivity index)” value came to 4.925 and the IC50 worked out at 53.3 µM. On BChE, the Ki was determined as 7.44 ± 0.565 µM and the IC50 is 10.8 µM. For the same molecule, the “DPPH percent radical scavenging” value in experiment [1] is listed as 1.848 ± 0.095%. The “ABTS percent radical scavenging” value in experiment [2] is 6.316 ± 0.584%.
On to `Cc1c(C)c2c(c(C)c1O)CCC(C)(C(=O)O)O2` (stereo not drawn) [Trolox, reference compound], for which the “DPPH percent radical scavenging” value in experiment [1] is given as 13.863 ± 1.023%. Besides, the “ABTS percent radical scavenging” value in experiment [2] stood at 29.211 ± 2.043%.
`OCc1ccc(C=NNc2nc(-c3ccc(F)cc3F)cs2)o1` [2i, 4‐(2,4‐Difluorophenyl)‐2‐(2‐((5‐Hydroxymethylfuran‐2‐Yl)methylene)hydrazineyl) Thiazole]: on AChE, affinity was put at a Ki of 43.4 ± 3.56 µM, the “AChE/BChE SI (selectivity index)” value is reported as 6.650 and the IC50 came to 63.1 µM. Besides, at BChE, the affinity, expressed as Ki, was 6.52 ± 0.428 µM and the half-inhibitory concentration (IC50) stood at 9.49 µM. In addition, in experiment [1], the “DPPH percent radical scavenging” value was 13.309% and 13.309 ± 1.278%. Further, the “ABTS percent radical scavenging” value in experiment [2] was 31.842% and 31.842 ± 2.785%.
Turning to `N#Cc1ccc(-c2csc(NN=Cc3ccc(CO)o3)n2)cc1` [2c, 4‐(4‐Cyanophenyl)‐2‐(2‐((5‐Hydroxymethylfuran‐2‐Yl)methylene)hydrazineyl)thiazole], at AChE, the Ki amounted to 31.8 ± 2.86 µM, the “AChE/BChE SI (selectivity index)” value was 3.334 and the IC50 amounted to 46.2 µM. Further, on BChE, the Ki stood at 9.53 ± 0.824 µM and half-maximal inhibition (IC50) was put at 13.9 µM. In addition, the “DPPH percent radical scavenging” value in experiment [1] came out at 3.512 ± 0.237%. For the same molecule, in experiment [2], the “ABTS percent radical scavenging” value is 15.789 ± 1.365%.
With `COc1ccc(-c2csc(NN=Cc3ccc(CO)o3)n2)cc1` [2b, 4‐(4‐Methoxyphenyl)‐2‐(2‐((5‐Hydroxymethylfuran‐2‐Yl)methylene)hydrazineyl)thiazole], on AChE, the Ki amounted to 14.5 ± 1.12 µM; the “AChE/BChE SI (selectivity index)” value was found to be 0.609; the midpoint of inhibition, the IC50, lay at 21.1 µM. At BChE, the affinity corresponds to a Ki of 23.82 ± 0.132 µM and it took 34.7 µM to reach half-maximal inhibition (IC50). The “DPPH percent radical scavenging” value in experiment [1] was found to be 1.109 ± 0.762%. Further, the “ABTS percent radical scavenging” value in experiment [2] is 2.105 ± 0.176%.
